Assay results taken from publication PMC7145549, “A general strategy exploiting m^5C duplex-remodelling effect for selective detection of RNA and DNA m^5C methyltransferase activity in cells” (Nucleic Acids Research, 2019).
“Also recorded” adds a separate entry of the source. Where two headings read alike, the source gives them in different places. One block for each molecule: values may come before it.

Legend:
[1] = CD conformational analysis at a range of MgCl2 concentrations; format: physicochemical; conditions: 25°C, pH 7.4, 150 mM NaCl, MgCl2 0-300 mM
Protocol: Circular dichroism (CD) spectroscopy
The CD spectra for the duplexes were obtained using a JASCO J-810 spectropolarimeter, as previously described.4 Measurements were carried out at 25 °C with 5 μM probes in a 10 mM sodium phosphate buffer (pH 7.4) containing 150 mM NaCl, and varying MgCl2 concentrations (0, 5, 10, 20, 100, and 300 mM). The concentrations were determined by UV absorbance at 260 nm (A260) using a NanoDrop ND-1000 UV-Visible Spectrophotometer. The oligo solutions were first heated to 90 °C for 5 min, and re-annealed by slow cooling to 4 °C at a rate of 1 °C/min. CD spectra were then recorded in quartz cuvettes (path length 1 mm, 400 μL) from 220 nm to 330 nm at 25 °C using a 10 nm/min scan speed, a spectral band width of 1 nm and a time constant of 4 s. All the spectra were subtracted with the buffer blank and smoothed using the Savitsky-Golay algorithm (polynomial order 10). […]

[2] = UV-based thermal denaturation / thermodynamic analysis; format: physicochemical; conditions: for increase in duplex stability on m5C methylation (ΔΔG°310): methylated vs unmethylated duplex
Protocol: UV-based thermal denaturation experiments
The melting of each duplex (1a, 1b, 7a, 7b, 11a and 11b) was performed on a Cary 300 UV-Visible Spectrophotometer (Varian) at a total strand concentration of 5 μM (unless otherwise stated) in 10 mM sodium phosphate buffer (pH 7.4), 150 mM NaCl and 20 mM MgCl2. Absorbance versus temperature profiles were recorded at 260 nm. The samples were first denatured by heating to 95 °C at 10 °C/min, followed by slow cooling to 25 °C at 0.4 °C/min to ensure a complete annealing of the strands. The melting transitions were then monitored by heating to 95 °C at 0.4 °C/min. To increase the accuracy of measurements, the sixth position was used to record the temperature data points by placing a temperature probe directly in the cuvette. Each oligo was measured at seven different concentrations (1, 2, 5, 10, 15, 20 and 30 μM), and a total of six independent melting transitions were measured for each concentration. The Tm values were determined by the Varian Cary Software using the baseline (alpha) method, which is defined as the point when the mole fraction of duplex was equal to 0.5. The melting transitions were generally found to be reproducible for all oligos studied.

[3] = target: T1, NSUN2 (Homo sapiens, UniProt Q08J23); assay: Cell-based m5C-probe methyltransferase assay (flow cytometry, probe 9a)
T1 sequence (Q08J23 whole entry): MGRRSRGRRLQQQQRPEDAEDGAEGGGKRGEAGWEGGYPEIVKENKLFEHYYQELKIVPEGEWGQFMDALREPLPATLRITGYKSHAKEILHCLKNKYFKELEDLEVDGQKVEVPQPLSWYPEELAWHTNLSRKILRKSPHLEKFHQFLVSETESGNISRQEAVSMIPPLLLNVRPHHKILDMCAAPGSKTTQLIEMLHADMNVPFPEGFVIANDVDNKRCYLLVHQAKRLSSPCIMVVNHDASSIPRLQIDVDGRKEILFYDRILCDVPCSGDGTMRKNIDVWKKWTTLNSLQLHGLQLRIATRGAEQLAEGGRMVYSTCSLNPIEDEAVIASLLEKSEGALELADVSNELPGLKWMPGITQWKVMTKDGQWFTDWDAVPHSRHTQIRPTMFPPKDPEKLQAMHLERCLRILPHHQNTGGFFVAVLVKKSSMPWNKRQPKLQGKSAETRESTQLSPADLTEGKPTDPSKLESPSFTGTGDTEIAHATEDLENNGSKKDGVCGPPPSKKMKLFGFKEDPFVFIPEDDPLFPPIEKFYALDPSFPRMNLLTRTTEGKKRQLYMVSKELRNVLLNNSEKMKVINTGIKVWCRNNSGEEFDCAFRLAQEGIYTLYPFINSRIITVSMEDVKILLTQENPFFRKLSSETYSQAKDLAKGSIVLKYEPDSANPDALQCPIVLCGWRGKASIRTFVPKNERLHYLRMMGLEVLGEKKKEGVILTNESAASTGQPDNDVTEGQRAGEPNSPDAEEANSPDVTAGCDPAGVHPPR
Protocol: The HeLa cells were pre-incubation with various concentrations of non-specific MTase inhibitors, including sinefungin, S-adenosyl-L-homocysteine (SAH), adenosine, and homocysteine at 37°C for 30 min. Nine different concentrations of inhibitors were used (0.1, 0.3, 1, 3, 10, 50, 100, 250, 1000 μM) and the final DMSO concentration was kept at less than 1% (v/v) of the assay mix. […] This was followed by the delivery of either the m^5C-probe 9a (10 μM) or control probe 10a (10 μM) into the cells via Lipofectamine 2000. Aliquots were then collected for flow cytometry measurements (λex 355 nm; λem 425–475 nm) at the indicated time points. The mean fluorescence intensity of at least 20 000 live cells was determined. IC50 determination: the IC50 values were then calculated from the variation in fluorescence at different inhibitor concentrations using nonlinear regression, with normalised dose-response fit on GraphPad Prism 6.0™. The assay was performed in triplicate for each inhibitor concentration. Z’ factor determination: the Z’ factor for our m^5C-probe assay was calculated using previously described method ([55]). For details, see Supplementary Data. […]
Cell-based m5C-probe methyltransferase assay
The HeLa cells were pre-incubation with various concentrations of DNA/RNA MTase inhibitors, including sinefungin, S-adenosyl-L-homocysteine (SAH), adenosine, and homocysteine at 37 °C for […]
and the final DMSO concentration was kept at less than 1% v/v of the assay mix. These concentrations […]
by the delivery of either the m5C-probe 9a (10 μM) or control probe 10a (10 μM) into the cells via Lipofectamine 2000, as described above. Aliquots were then collected for flow cytometry measurements (λex 355 nm; λem 425-475 nm) at the indicated time points. The mean fluorescence intensity of at least 20,000 live cells was determined.
For IC50 determination: the IC50 value were then calculated from the variation in fluorescence at different inhibitor concentrations using nonlinear regression, with normalised dose-response fit on GraphPad Prism 6.0™. The assay was performed in triplicate for each inhibitor concentration.
For the determination of Z’ factor: the Z’ factor for our m5C-probe assay was calculated using the method described by Zhang et al.17 A total of 40 independent assays were run with either sinefungin (1 mM; positive control) or DMSO (1% v/v; negative control). The Z’ factor was then calculated using […]
Where µp and µn are the means of the positive (p) and negative (n) controls σp and σn are the standard deviations of the positive (p) and negative (n) controls.

[4] = Fluorescence emission and quantum yield analysis of probes; format: physicochemical; conditions: in MeOH, reference standard, authors' conditions
Protocol: Fluorescence analysis was performed using a Cary Eclipse fluorescence spectrophotometer, as previously reported with modifications ([36]). The fluorescence emission spectra (λem = 400–600 nm) of the probes were recorded in a quartz cuvette at 37°C, at a total stand concentration 5 μM in a buffer of 10 mM sodium phosphate buffer (pH 7.4) containing 150 mM NaCl and 20 mM MgCl2. An average of five scans was recorded. Background fluorescence spectra were acquired after the probe has been incubated for 30 min at 37°C. For determination of fluorescence quantum yields of the m^5C-probes, see Supplementary Data.
The fluorescence quantum yields (ΦF) of pyrene (Py)-labelled DNA probes 11a-c were determined as previously described.7,11 UV absorption of the probes λex 340 nm was measured on a Cary-300 UV-Visible spectrophotometer (Varian Inc.) from 0.1 to 0.03 absorbance units in 0.01 increments. The fluorescence emission spectra were immediately measured afterwards in a Cary Eclipse (Varian Inc.) fluorescent spectrophotometer with an excitation wavelength of 340 nm. Pyrenebutanoic acid (PBA) in methanol was used as a reference, and was calculated using the equation below. The reported quantum yields are an average of three measurements within ±10%. […]
ΦF(PBA) is the cross-calibrated value for the fluorescence quantum emission yield of pyrenebutanoic acid (PBA) in MeOH. […]

[5] = target: T2, DNMT3A (Homo sapiens, UniProt Q9Y6K1); assay: In vitro DNMT3A inhibition assay with DNA m5C-probe 11a; format: biochemical; conditions: probe 11a 5 μM, DNMT3A 0.5 μM, 30 min; read-out: IC50 against DNMT3A
T2 construct: Full-length human DNMT3A protein containing N-terminal His-DDDDK tag was purchased from; His-DDDDK (N); purchased abcam plc; UK ab170408
T2 sequence (Q9Y6K1 whole entry, looked up): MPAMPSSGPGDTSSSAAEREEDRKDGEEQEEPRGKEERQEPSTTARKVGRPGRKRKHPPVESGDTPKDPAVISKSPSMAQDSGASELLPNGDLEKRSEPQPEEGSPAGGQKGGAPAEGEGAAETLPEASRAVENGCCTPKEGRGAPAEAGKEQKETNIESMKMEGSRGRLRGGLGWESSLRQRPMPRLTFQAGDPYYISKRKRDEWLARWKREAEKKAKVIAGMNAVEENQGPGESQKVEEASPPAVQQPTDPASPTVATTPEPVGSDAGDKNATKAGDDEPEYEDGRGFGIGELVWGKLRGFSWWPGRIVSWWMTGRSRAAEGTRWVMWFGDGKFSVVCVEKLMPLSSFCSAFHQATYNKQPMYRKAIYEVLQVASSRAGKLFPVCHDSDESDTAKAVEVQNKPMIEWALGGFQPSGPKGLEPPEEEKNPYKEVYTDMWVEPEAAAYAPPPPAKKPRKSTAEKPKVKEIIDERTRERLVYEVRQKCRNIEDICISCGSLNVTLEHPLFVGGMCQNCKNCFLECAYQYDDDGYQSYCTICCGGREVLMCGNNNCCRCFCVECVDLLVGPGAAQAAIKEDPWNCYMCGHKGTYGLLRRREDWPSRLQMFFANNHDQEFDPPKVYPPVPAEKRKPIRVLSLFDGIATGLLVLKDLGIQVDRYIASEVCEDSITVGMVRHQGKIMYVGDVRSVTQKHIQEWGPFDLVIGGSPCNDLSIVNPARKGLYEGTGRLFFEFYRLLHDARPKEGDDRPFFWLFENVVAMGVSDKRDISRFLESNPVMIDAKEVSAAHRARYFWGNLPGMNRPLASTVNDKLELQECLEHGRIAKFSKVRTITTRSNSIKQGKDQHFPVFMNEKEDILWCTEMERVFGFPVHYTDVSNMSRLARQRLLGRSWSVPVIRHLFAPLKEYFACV
Protocol: (§1) RNA methyltransferase assay: the assay was performed at 37°C in triplicate in a Corning Costar 96-well flat bottom black plate. Reaction consisted of enzyme (0.5 μM), methyl donor S-adenosyl-L-methionine (SAM; 200 μM), m^5C-probe 9a (substrate; 5 μM) or locked-probe 10a (control; 5 μM) in a 50 mM HEPES buffer (pH 7.4) containing 150 mM NaCl and 20 mM MgCl2. The final reaction volume is 25 μl. The time course of fluorescence activation was recorded immediately after the addition of enzyme with a Tecan ultra microplate reader (λex 360 nm; λem 465 nm). An average of five scans was recorded. DNA methyltransferase assay: the assay was performed as described above. Reaction consisted of enzyme (NSUN2 or DNMT3A; 0.5 μM), methyl donor S-adenosyl-L-methionine (SAM; 200 μM), DNA m^5C-probe 11a (substrate; 5 μM) in a 50 mM HEPES buffer (pH 7.4) containing 150 mM NaCl and 20 mM MgCl2. The fluorescence of the reaction was monitored at λem 400 nm (λex 340 nm).
Importantly, m^5C-probe 11a may also be applied to the inhibition study of DNMT3A. […] Work is currently underway to explore the possibility of employing both probes concurrently for the simultaneous detection of RNA and DNA m^5C MTase activity.

[6] = free fluorophore; cited from earlier work
[7] = target: T1, NSUN2; assay: In vitro m5C-probe fluorescence RNA methyltransferase assay; format: biochemical; set-up: Full-length human NSUN2 (containing C-terminal MYC/DDK tag; TP314459); MYC/DDK (C); purchased Origene Technologies Inc., USA TP314459; conditions: inhibitor 10 μM, probe 9a 5 μM, NSUN2 0.5 μM
Protocol: as §1
We next examined whether m^5C-probe 9a could function as fluorogenic substrate for RNA:m^5C MTase by testing it against NSUN2, which is of particular interest in light of emerging evidence linking NSUN2 with m^5C methylation of human mRNA ([14]) and its association with human cancers ([25–29]). […] The formation of methylated probe was measured by an increase in fluorescence signal at 465 nm (λex 360 nm).

[8] = pH 7.4, 150 mM NaCl, 20 mM MgCl2
[9] = HeLa cells, 30 min pre-incubation with inhibitor, probe 9a 10 μM, flow cytometry, read-out: IC50 against NSUN2

Molecule: NC(CCS)C(=O)O (centres unmarked) [homocysteine]
IC50 [3, 9]: > 400 µM

Molecule: Nc1ncnc2c1ncn2[C@@H]1O[C@H](CSCC[C@H](N)C(=O)O)[C@@H](O)[C@H]1O [SAH, S-adenosyl-L-homocysteine]
IC50 [3, 9]: 3.1 µM

Molecule: O=C(O)CCCc1ccc2ccc3cccc4ccc1c2c34 [PBA, Pyrenebutanoic acid]
fluorescence quantum yield [4]: 0.061

Molecule: Nc1ncnc2c1ncn2[C@@H]1O[C@H](CO)[C@@H](O)[C@H]1O [adenosine]
IC50 [5]: 106 µM
IC50 [3, 9]: > 200 µM

Molecule: O=c1nc2[nH]c(-c3ccccc3)cc2c[nH]1 [^pC, 6-phenylpyrrolocytosine]
quantum yield (ΦF) [6]: 0.31

Molecule: Nc1ncnc2c1ncn2[C@@H]1O[C@H](C[C@@H](N)CC[C@H](N)C(=O)O)[C@@H](O)[C@H]1O [sinefungin]
effect of inhibitor on probe 9a fluorescence activation by NSUN2 [7]: reduces significantly; also recorded: significant reduction in fluorescence intensity
IC50 [5]: 0.7 µM
IC50 [3]: 8.9 µM

Other lines, results leading:

midpoint MgCl2 concentration for B-Z transition [1]: ~ 10 mM
free energy of B-to-Z transition (ΔΔG°T) ([2]; ΔG°310 of 7b (20 mM MgCl2) vs 7b* (no MgCl2)): ~1.5 kcal/mol
Molecule: d(CG-m^5C-GCG)2 [7b]

duplex stabilisation by m5C (ΔΔG°310 per m5C) ([2]; absence of MgCl2): 0.5 kcal/mol per m5C
increase in melting temperature (Tm) per m5C ([2]; absence of MgCl2): 1.7 °C per m5C
ΔΔH° 7a→7b [2, 8]: 7.3 kcal/mol
ΔΔS° 7a→7b [2, 8]: 31.6 cal/mol/K
increase in duplex stability on m5C methylation (ΔΔG°310) [2, 8]: 2.5 kcal/mol
Molecule: d(CG-C-GCG)2 [7a]

increase in duplex stability on m5C methylation (ΔΔG°310) [2, 8]: ~0.8 kcal/mol
Molecule: r(CG-C-GCG)2 [1a]
